Reference: patent publication US9174994B2, “Enhanced treatment regimens using mTor inhibitors” (INTELLIKINE LLC, priority 2011, dated 2015)

Assay: Phase I clinical trial: treatment-emergent adverse events (patients, n (%)), dose limiting toxicity, MTD
Format: in vivo
Method: Safety, maximum tolerated dose (MTD), pharmacokinetics (PK) and preliminary antitumor activity were evaluated.
Pharmacodynamic (PD) endpoints were evaluated in surrogate (peripheral blood cells [PBCs], skin) and tumor tissues for the phosphorylation of TORC1-dependent markers (4EBP1/S6), and TORC2-dependent markers (AKT/PRAS40).

CC(C)n1nc(-c2ccc3oc(N)nc3c2)c2c(N)ncnc21 [compound A]
3: Patients Reporting at Least One Related TEAE (7 mg/week (N = 3)) | Patients Reporting at Least One Related TEAE (15 mg/week (N = 3)) | Nausea (30 mg/week (N = 3)) | Patients Reporting at Least One Related TEAE (30 mg/week (N = 3))
0 (0%): Oral discomfort (7 mg/week (N = 3)) | Pruritus (7 mg/week (N = 3)) | RASH (7 mg/week (N = 3)) | Rash (7 mg/week (N = 3)) | WEAKNESS (7 mg/week (N = 3)) | Alanine aminotransferase increased (9 mg/3 W, QDx3d QW (N = 5)) | Catheter site inflammation (9 mg/3 W, QDx3d QW (N = 5)) | Catheter site pain (9 mg/3 W, QDx3d QW (N = 5)) | Decreased appetite (9 mg/3 W, QDx3d QW (N = 5)) | Dysgeusia (9 mg/3 W, QDx3d QW (N = 5)) | Fatigue (9 mg/3 W, QDx3d QW (N = 5)) | Headache (9 mg/3 W, QDx3d QW (N = 5)) | Hyperbilirubinaemia (9 mg/3 W, QDx3d QW (N = 5)) | Low fever (9 mg/3 W, QDx3d QW (N = 5)) | Platelet count decreased (9 mg/3 W, QDx3d QW (N = 5)) | Pyrexia (9 mg/3 W, QDx3d QW (N = 5)) | Rash macular (9 mg/3 W, QDx3d QW (N = 5)) | Asthenia (9 mg/3 W, QDx3d QW (N = 5), 2nd Asthenia line) | Diarrhoea (10 mg/5 W, QDx5d QW (N = 3)) | Rash (10 mg/5 W, QDx5d QW (N = 3)) | Nausea (10 mg/5 W, QDx5d QW (N = 3), 2nd Nausea line) | ASTHENIA (10 mg/week (N = 3)) | ATHENIA (10 mg/week (N = 3)) | Alanine aminotransferase increased (10 mg/week (N = 3)) | Asthenia (10 mg/week (N = 3)) | Blood creatinine increased (10 mg/week (N = 3)) | Blood triglycerides increased (10 mg/week (N = 3)) | DIARRHEA (10 mg/week (N = 3)) | Decreased appetite (10 mg/week (N = 3)) | Diarrhoea (10 mg/week (N = 3)) | Dysgeusia (10 mg/week (N = 3)) | Dyspepsia (10 mg/week (N = 3)) | HYPERGLYCEMIA (10 mg/week (N = 3)) | Lymphopenia (10 mg/week (N = 3)) | Malaise (10 mg/week (N = 3)) | Muscle spasms (10 mg/week (N = 3)) | Pruritus (10 mg/week (N = 3)) | RASH (10 mg/week (N = 3)) | Rash (10 mg/week (N = 3)) | WEAKNESS (10 mg/week (N = 3)) | Alanine aminotransferase increased (12 mg/3 W, QDx3d QW (N = 3)) | Diarrhoea (12 mg/3 W, QDx3d QW (N = 3)) | Dry skin (12 mg/3 W, QDx3d QW (N = 3)) | Dyspnoea (12 mg/3 W, QDx3d QW (N = 3)) | Fatigue (12 mg/3 W, QDx3d QW (N = 3)) | Headache (12 mg/3 W, QDx3d QW (N = 3)) | Hyperbilirubinaemia (12 mg/3 W, QDx3d QW (N = 3)) | Hypercholesterolaemia (12 mg/3 W, QDx3d QW (N = 3)) | Hypertransaminasaemia (12 mg/3 W, QDx3d QW (N = 3)) | Hypertriglyceridaemia (12 mg/3 W, QDx3d QW (N = 3)) | Hypomagnesaemia (12 mg/3 W, QDx3d QW (N = 3)) | Hypotension (12 mg/3 W, QDx3d QW (N = 3)) | Low fever (12 mg/3 W, QDx3d QW (N = 3)) | Lymphopenia (12 mg/3 W, QDx3d QW (N = 3)) | Palmar-plantar erythrodysaesthesia syndrome (12 mg/3 W, QDx3d QW (N = 3)) | Platelet count decreased (12 mg/3 W, QDx3d QW (N = 3)) | Pyrexia (12 mg/3 W, QDx3d QW (N = 3)) | Rash (12 mg/3 W, QDx3d QW (N = 3)) | Urinary tract infection (12 mg/3 W, QDx3d QW (N = 3)) | Vomiting (12 mg/3 W, QDx3d QW (N = 3)) | Asthenia (12 mg/3 W, QDx3d QW (N = 3), 2nd Asthenia line) | ASTHENIA (15 mg/week (N = 3)) | ATHENIA (15 mg/week (N = 3)) | Alanine aminotransferase increased (15 mg/week (N = 3)) | Aspartate aminotransferase increased (15 mg/week (N = 3)) | Asthenia (15 mg/week (N = 3)) | DIARRHEA (15 mg/week (N = 3)) | Decreased appetite (15 mg/week (N = 3)) | Diarrhoea (15 mg/week (N = 3)) | Dysgeusia (15 mg/week (N = 3)) | Dyspepsia (15 mg/week (N = 3)) | HYPERGLYCEMIA (15 mg/week (N = 3)) | Lymphopenia (15 mg/week (N = 3)) | Malaise (15 mg/week (N = 3)) | Mucosal inflammation (15 mg/week (N = 3)) | Muscle spasms (15 mg/week (N = 3)) | Oral discomfort (15 mg/week (N = 3)) | Pruritus (15 mg/week (N = 3)) | RASH (15 mg/week (N = 3)) | Rash (15 mg/week (N = 3)) | Vomiting (15 mg/week (N = 3)) | WEAKNESS (15 mg/week (N = 3)) | Alanine aminotransferase increased (16 mg/3 W, QDx3d QW (N = 3)) | Catheter site inflammation (16 mg/3 W, QDx3d QW (N = 3)) | Catheter site pain (16 mg/3 W, QDx3d QW (N = 3)) | Decreased appetite (16 mg/3 W, QDx3d QW (N = 3)) | Dry skin (16 mg/3 W, QDx3d QW (N = 3)) | Dysgeusia (16 mg/3 W, QDx3d QW (N = 3)) | Dyspnoea (16 mg/3 W, QDx3d QW (N = 3)) | Hyperbilirubinaemia (16 mg/3 W, QDx3d QW (N = 3)) | Hypercholesterolaemia (16 mg/3 W, QDx3d QW (N = 3)) | Hypertransaminasaemia (16 mg/3 W, QDx3d QW (N = 3)) | Hypertriglyceridaemia (16 mg/3 W, QDx3d QW (N = 3)) | Hypomagnesaemia (16 mg/3 W, QDx3d QW (N = 3)) | Hypotension (16 mg/3 W, QDx3d QW (N = 3)) | Lymphopenia (16 mg/3 W, QDx3d QW (N = 3)) | Nausea (16 mg/3 W, QDx3d QW (N = 3)) | Palmar-plantar erythrodysaesthesia syndrome (16 mg/3 W, QDx3d QW (N = 3)) | Platelet count decreased (16 mg/3 W, QDx3d QW (N = 3)) | Pruritus (16 mg/3 W, QDx3d QW (N = 3)) | Rash (16 mg/3 W, QDx3d QW (N = 3)) | Rash macular (16 mg/3 W, QDx3d QW (N = 3)) | Urinary tract infection (16 mg/3 W, QDx3d QW (N = 3)) | Vomiting (16 mg/3 W, QDx3d QW (N = 3)) | ASTHENIA (20 mg/week (N = 3)) | ATHENIA (20 mg/week (N = 3)) | Alanine aminotransferase increased (20 mg/week (N = 3)) | Aspartate aminotransferase increased (20 mg/week (N = 3)) | Blood creatinine increased (20 mg/week (N = 3)) | Blood triglycerides increased (20 mg/week (N = 3)) | DIARRHEA (20 mg/week (N = 3)) | Dysgeusia (20 mg/week (N = 3)) | HYPERGLYCEMIA (20 mg/week (N = 3)) | Lymphopenia (20 mg/week (N = 3)) | Malaise (20 mg/week (N = 3)) | Oral discomfort (20 mg/week (N = 3)) | RASH (20 mg/week (N = 3)) | WEAKNESS (20 mg/week (N = 3)) | Alanine aminotransferase increased (30 mg/week (N = 3)) | Aspartate aminotransferase increased (30 mg/week (N = 3)) | Asthenia (30 mg/week (N = 3)) | Blood creatinine increased (30 mg/week (N = 3)) | Blood triglycerides increased (30 mg/week (N = 3)) | Decreased appetite (30 mg/week (N = 3)) | Diarrhoea (30 mg/week (N = 3)) | Dysgeusia (30 mg/week (N = 3)) | Dyspepsia (30 mg/week (N = 3)) | Hyperglycaemia (30 mg/week (N = 3)) | Lymphopenia (30 mg/week (N = 3)) | Muscle spasms (30 mg/week (N = 3)) | Oral discomfort (30 mg/week (N = 3)) | Pruritus (30 mg/week (N = 3)) | Rash (30 mg/week (N = 3))
3 (60%): Rash (9 mg/3 W, QDx3d QW (N = 5))
1 (33%): Patients Reporting at Least One Related TEAE (10 mg/5 W, QDx5d QW (N = 3)) | Urine tract infection (10 mg/5 W, QDx5d QW (N = 3)) | Vomiting (10 mg/5 W, QDx5d QW (N = 3)) | Nausea (10 mg/5 W, QDx5d QW (N = 3), 1st Nausea line) | Aspartate aminotransferase increased (10 mg/week (N = 3)) | Hyperglycaemia (10 mg/week (N = 3)) | Oral discomfort (10 mg/week (N = 3)) | Vomiting (10 mg/week (N = 3)) | Asthenia (12 mg/3 W, QDx3d QW (N = 3)) | Catheter site inflammation (12 mg/3 W, QDx3d QW (N = 3)) | Catheter site pain (12 mg/3 W, QDx3d QW (N = 3)) | Decreased appetite (12 mg/3 W, QDx3d QW (N = 3)) | Dysgeusia (12 mg/3 W, QDx3d QW (N = 3)) | Mucosal inflammation (12 mg/3 W, QDx3d QW (N = 3)) | Pruritus (12 mg/3 W, QDx3d QW (N = 3)) | Rash macular (12 mg/3 W, QDx3d QW (N = 3)) | Blood creatinine increased (15 mg/week (N = 3)) | Blood triglycerides increased (15 mg/week (N = 3)) | Asthenia (16 mg/3 W, QDx3d QW (N = 3)) | Diarrhoea (16 mg/3 W, QDx3d QW (N = 3)) | Fatigue (16 mg/3 W, QDx3d QW (N = 3)) | Headache (16 mg/3 W, QDx3d QW (N = 3)) | Low fever (16 mg/3 W, QDx3d QW (N = 3)) | Pyrexia (16 mg/3 W, QDx3d QW (N = 3)) | Asthenia (16 mg/3 W, QDx3d QW (N = 3), 2nd Asthenia line) | Decreased appetite (20 mg/week (N = 3)) | Dyspepsia (20 mg/week (N = 3)) | Hyperglycaemia (20 mg/week (N = 3)) | Muscle spasms (20 mg/week (N = 3)) | Pruritus (20 mg/week (N = 3)) | Rash (20 mg/week (N = 3)) | Vomiting (20 mg/week (N = 3)) | ASTHENIA (30 mg/week (N = 3)) | ATHENIA (30 mg/week (N = 3)) | DIARRHEA (30 mg/week (N = 3)) | Malaise (30 mg/week (N = 3)) | Mucosal inflammation (30 mg/week (N = 3)) | RASH (30 mg/week (N = 3)) | Vomiting (30 mg/week (N = 3)) | WEAKNESS (30 mg/week (N = 3))
2 (67%): Vomiting (7 mg/week (N = 3)) | Nausea (10 mg/week (N = 3)) | Patients Reporting at Least One Related TEAE (10 mg/week (N = 3)) | Hyperglycaemia (12 mg/3 W, QDx3d QW (N = 3)) | Nausea (12 mg/3 W, QDx3d QW (N = 3)) | Patients Reporting at Least One Related TEAE (12 mg/3 W, QDx3d QW (N = 3)) | Hyperglycaemia (15 mg/week (N = 3)) | Nausea (15 mg/week (N = 3)) | Hyperglycaemia (16 mg/3 W, QDx3d QW (N = 3)) | Mucosal inflammation (16 mg/3 W, QDx3d QW (N = 3)) | Patients Reporting at Least One Related TEAE (16 mg/3 W, QDx3d QW (N = 3)) | Asthenia (20 mg/week (N = 3)) | Diarrhoea (20 mg/week (N = 3)) | Mucosal inflammation (20 mg/week (N = 3)) | Nausea (20 mg/week (N = 3)) | Patients Reporting at Least One Related TEAE (20 mg/week (N = 3)) | HYPERGLYCEMIA (30 mg/week (N = 3))
0(0%): Mucosal inflammation (10 mg/week (N = 3))
4 (80%): Patients Reporting at Least One Related TEAE (9 mg/3 W, QDx3d QW (N = 5))
2 (40%): Mucosal inflammation (9 mg/3 W, QDx3d QW (N = 5)) | Nausea (9 mg/3 W, QDx3d QW (N = 5)) | Pruritus (9 mg/3 W, QDx3d QW (N = 5)) | Vomiting (9 mg/3 W, QDx3d QW (N = 5))
Muco-: Dose limiting toxicity (20 mg Q3D)
1 (20%): Asthenia (9 mg/3 W, QDx3d QW (N = 5)) | Diarrhoea (9 mg/3 W, QDx3d QW (N = 5)) | Dry skin (9 mg/3 W, QDx3d QW (N = 5)) | Dyspnoea (9 mg/3 W, QDx3d QW (N = 5)) | Hypercholesterolaemia (9 mg/3 W, QDx3d QW (N = 5)) | Hyperglycaemia (9 mg/3 W, QDx3d QW (N = 5)) | Hypertransaminasaemia (9 mg/3 W, QDx3d QW (N = 5)) | Hypertriglyceridaemia (9 mg/3 W, QDx3d QW (N = 5)) | Hypomagnesaemia (9 mg/3 W, QDx3d QW (N = 5)) | Hypotension (9 mg/3 W, QDx3d QW (N = 5)) | Lymphopenia (9 mg/3 W, QDx3d QW (N = 5)) | Palmar-plantar erythrodysaesthesia syndrome (9 mg/3 W, QDx3d QW (N = 5)) | Urinary tract infection (9 mg/3 W, QDx3d QW (N = 5))
As-: Dose limiting toxicity (40 mg QW)
